pIC50, pKi: −log10 of the molar value.
What was measured:
[1] = biological target: T1, Cholinesterase (Equus caballus, UniProt P81908); assay: Inhibition of equine BuChE
[2] = biological target: T2, Acetylcholinesterase (Electrophorus electricus, UniProt O42275); assay: Inhibition of electric eel AChE
[3] = Selectivity index, ratio of IC50 for human AChE to IC50 for equine BChE using butyrylthiocholine as substrate
[4] = biological target: Cholinesterase (Equus caballus) (UniProt P81908); assay: Inhibition of equine BChE at 100 uM by Ellman's method relative to control
Chain of Cholinesterase (Equus caballus) (P81908 whole entry): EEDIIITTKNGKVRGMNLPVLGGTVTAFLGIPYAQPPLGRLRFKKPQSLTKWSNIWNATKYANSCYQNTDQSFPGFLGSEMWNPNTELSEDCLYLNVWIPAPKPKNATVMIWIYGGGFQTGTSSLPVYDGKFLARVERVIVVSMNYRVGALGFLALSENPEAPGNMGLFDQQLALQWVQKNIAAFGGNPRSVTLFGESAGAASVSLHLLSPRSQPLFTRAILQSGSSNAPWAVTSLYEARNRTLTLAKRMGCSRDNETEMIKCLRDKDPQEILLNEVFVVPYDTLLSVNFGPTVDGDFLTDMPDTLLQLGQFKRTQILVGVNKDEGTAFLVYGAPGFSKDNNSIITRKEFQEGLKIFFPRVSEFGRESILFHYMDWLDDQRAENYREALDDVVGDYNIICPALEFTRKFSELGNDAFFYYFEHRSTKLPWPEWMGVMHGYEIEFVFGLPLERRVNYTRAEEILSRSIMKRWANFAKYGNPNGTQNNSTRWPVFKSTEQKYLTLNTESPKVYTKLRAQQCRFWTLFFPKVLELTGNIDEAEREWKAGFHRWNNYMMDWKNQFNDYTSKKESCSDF

[5] = biological target: T3, Acetylcholinesterase (Homo sapiens, UniProt P22303); assay: Inhibition of human AChE using acetylthiocholine iodide as substrate after 15 mins by Ellman's method
T3 sequence (P22303 whole entry): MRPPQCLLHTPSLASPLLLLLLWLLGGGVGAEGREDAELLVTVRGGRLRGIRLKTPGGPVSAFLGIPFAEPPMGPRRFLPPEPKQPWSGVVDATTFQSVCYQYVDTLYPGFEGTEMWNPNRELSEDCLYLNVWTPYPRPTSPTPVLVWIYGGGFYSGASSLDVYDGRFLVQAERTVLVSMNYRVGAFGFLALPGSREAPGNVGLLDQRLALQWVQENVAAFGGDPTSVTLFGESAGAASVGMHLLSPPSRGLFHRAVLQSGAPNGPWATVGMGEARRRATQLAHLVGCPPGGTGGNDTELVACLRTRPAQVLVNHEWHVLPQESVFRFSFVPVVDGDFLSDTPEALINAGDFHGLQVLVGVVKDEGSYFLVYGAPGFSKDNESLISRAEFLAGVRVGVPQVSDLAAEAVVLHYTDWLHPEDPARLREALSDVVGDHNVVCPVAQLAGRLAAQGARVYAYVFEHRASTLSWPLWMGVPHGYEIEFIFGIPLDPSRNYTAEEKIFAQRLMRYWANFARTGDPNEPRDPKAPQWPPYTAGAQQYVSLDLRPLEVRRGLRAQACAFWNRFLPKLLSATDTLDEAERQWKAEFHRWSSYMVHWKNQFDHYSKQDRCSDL

[6] = biological target: T3, Acetylcholinesterase; assay: Binding affinity to AChE (unknown origin) assessed as inhibition constant
[7] = biological target: T4, Cholinesterase (Homo sapiens, UniProt P06276); assay: Binding affinity to BChE (unknown origin) assessed as inhibition constant
T4 sequence (P06276 whole entry): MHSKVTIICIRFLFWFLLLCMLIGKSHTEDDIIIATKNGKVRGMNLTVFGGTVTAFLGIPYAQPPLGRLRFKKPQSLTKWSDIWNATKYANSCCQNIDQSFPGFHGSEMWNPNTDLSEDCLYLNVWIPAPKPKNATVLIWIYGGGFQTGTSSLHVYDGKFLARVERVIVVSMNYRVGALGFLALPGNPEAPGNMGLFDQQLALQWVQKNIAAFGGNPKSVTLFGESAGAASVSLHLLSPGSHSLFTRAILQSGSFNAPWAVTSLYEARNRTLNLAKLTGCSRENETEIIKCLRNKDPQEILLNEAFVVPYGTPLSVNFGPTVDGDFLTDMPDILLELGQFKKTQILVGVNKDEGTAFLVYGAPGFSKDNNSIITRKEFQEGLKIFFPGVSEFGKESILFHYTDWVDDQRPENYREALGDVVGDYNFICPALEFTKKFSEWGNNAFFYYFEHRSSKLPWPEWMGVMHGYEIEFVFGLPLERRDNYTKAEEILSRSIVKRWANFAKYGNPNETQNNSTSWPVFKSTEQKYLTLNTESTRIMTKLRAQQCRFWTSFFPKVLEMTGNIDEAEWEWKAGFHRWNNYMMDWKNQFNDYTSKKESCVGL

[8] = biological target: T4, Cholinesterase; assay: Inhibition of human BChE using butyrylthiocholine iodide as substrate preincubated for 15 min followed by substrate addition measured after 40 min by Ellman's method
[9] = biological target: T5, Protein deacetylase HDAC6 (Homo sapiens, UniProt Q9UBN7); assay: Inhibition of HDAC6 (unknown origin)
T5 sequence (Q9UBN7 whole entry): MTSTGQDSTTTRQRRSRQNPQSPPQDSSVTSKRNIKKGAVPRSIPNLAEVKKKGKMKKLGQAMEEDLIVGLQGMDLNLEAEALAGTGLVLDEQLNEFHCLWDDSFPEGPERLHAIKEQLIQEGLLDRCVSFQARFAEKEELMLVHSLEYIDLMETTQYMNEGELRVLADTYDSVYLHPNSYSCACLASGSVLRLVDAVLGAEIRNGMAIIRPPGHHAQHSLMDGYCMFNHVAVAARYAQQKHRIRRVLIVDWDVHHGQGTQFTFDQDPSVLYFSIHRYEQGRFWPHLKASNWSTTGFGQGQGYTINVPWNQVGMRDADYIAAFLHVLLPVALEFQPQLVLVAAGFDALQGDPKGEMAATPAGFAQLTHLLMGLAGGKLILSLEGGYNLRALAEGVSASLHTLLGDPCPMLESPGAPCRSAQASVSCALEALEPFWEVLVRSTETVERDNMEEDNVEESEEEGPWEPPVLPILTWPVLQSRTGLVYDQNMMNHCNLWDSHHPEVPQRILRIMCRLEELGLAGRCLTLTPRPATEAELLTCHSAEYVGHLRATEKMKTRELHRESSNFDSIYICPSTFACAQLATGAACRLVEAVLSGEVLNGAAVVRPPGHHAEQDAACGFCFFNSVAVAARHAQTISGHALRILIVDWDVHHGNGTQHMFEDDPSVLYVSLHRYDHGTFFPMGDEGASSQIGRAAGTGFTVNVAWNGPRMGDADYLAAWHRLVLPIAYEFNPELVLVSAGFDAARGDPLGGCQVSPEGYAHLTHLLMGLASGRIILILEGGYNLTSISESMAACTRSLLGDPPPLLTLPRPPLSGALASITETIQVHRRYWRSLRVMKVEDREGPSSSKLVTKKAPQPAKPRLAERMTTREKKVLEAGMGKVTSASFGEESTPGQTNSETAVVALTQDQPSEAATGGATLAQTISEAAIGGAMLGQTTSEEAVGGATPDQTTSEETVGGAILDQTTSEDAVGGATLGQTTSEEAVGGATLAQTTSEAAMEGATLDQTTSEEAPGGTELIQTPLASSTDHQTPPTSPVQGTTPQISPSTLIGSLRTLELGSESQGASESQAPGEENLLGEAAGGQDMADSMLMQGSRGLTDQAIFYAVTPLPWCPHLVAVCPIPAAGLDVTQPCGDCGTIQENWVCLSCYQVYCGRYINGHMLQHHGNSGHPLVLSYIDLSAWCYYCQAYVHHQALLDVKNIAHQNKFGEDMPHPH

[10] = biological target: T4, Cholinesterase; assay: Inhibition of BChE (unknown origin)
[11] = biological target: T1, Cholinesterase; assay: Inhibition of equine serum BuChE by Ellman's method
[12] = biological target: T2, Acetylcholinesterase; assay: Inhibition of electric eel AChE using acetylthiocholine iodide as substrate after 60 mins by Ellman's method
[13] = biological target: T4, Cholinesterase
[14] = biological target: T3, Acetylcholinesterase
[15] = Selectivity index, ratio of IC50 for electric eel AChE to IC50 for equine serum BuChE
[16] = biological target: T3, Acetylcholinesterase; assay: Inhibition of human AChE by Ellman's method
[17] = biological target: T2, Acetylcholinesterase; assay: Inhibition of Electric eel AChE using […] as substrate by spectrophotometry based Ellman's method
[18] = Inhibition of equine serum BChE using butyrylthiocholine iodide as substrate by Ellman's method; design: species or system Equus caballus
[19] = biological target: T3, Acetylcholinesterase; assay: Inhibition of human AChE at 15 uM relative to control
[20] = biological target: T1, Cholinesterase; assay: Inhibition of equine serum BuChE using butyrylthiocholine iodide as substrate preincubated for 60 mins followed by susbtrate addition by Ellaman"s method; format: cell-free

T1 sequence (P81908 whole entry): as the sequence (P81908 whole entry) above
T2 sequence (O42275 whole entry): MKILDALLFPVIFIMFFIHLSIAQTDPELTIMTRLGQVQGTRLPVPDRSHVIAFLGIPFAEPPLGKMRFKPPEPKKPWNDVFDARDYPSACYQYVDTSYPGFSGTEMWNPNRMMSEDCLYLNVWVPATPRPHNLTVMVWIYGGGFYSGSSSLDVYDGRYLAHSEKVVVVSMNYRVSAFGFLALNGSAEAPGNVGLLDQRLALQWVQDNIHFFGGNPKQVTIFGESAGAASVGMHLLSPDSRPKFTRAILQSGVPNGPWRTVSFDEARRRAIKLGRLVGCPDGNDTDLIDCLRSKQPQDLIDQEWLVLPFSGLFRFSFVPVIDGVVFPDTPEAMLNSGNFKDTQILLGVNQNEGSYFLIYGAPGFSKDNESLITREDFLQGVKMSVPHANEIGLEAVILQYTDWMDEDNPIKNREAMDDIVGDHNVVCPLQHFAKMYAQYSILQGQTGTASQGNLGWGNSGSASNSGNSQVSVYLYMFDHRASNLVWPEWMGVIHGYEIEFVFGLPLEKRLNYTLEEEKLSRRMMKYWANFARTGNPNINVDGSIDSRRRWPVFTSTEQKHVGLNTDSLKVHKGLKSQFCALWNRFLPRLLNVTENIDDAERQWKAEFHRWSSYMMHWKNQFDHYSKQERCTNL

Fc1ccc2c(c1)c1c(n2CCN2CCCCC2)CCCC1
pIC50 [1]: 6.96 | pIC50 [2]: < 4.00

O=C(CNCCCCNCC(=O)Nc1c2c(nc3c1CCC3)CCCC2)Nc1c2c(nc3c1CCC3)CCCC2
Ratio IC50 [3]: 22

NNc1nc(NN)nc(NCCNC(=O)c2cc3c([nH]c4ccccc43)c(-c3ccccc3)n2)n1
inhibition [4]: 29.5% | pIC50 [1]: 6.00

O=C(NCCCCCCNc1c2c(nc3ccccc13)CCCC2)c1ccccc1O
pIC50 [5]: 7.70 | pIC50 [1]: 8.00

O=C(Oc1cc(OC(=O)N2CCCCC2)cc(C(O)CN2CCCCC2)c1)N1CCCCC1 (centres undefined)
pKi [6]: 5.16 | pKi [7]: 7.96

CCN(CC)Cc1ccccc1CNC(=O)c1cccc(NC(=O)c2cccc(NC(=O)CCCCCCC(=O)NO)c2)c1
pIC50 [8]: 8.40 | pIC50 [9]: 8.05

COc1cc(CNCCCNc2c3c(nc4ccccc24)CCCCC3)ccc1O
pIC50 [5]: 5.52 | pIC50 [10]: 6.45

COc1ccc2c(c1)CC/C(=C\c1ccc[n+](Cc3ccc(Br)cc3)c1)C2=O
pIC50 [11]: 6.05 | pIC50 [12]: 4.75

CN(C)C(=O)Oc1ccc(C(=O)C2CCC(Cc3ccccc3)CC2)c(OC(=O)N(C)C)c1 (centres undefined)
pIC50 [1]: 6.28 | pIC50 [2]: 5.11

CCC(=O)N(CC(=O)Nc1ccccc1C)Cc1ccccc1
pIC50 [11]: 4.59 | pIC50 [12]: < 2.79

CCc1[nH]c2ccccc2c1CCN1CCC[C@H](CC)C1
pIC50 [13]: 6.19 | pIC50 [14]: < 4.00

CCCCCCNC(=O)Oc1ccc2[nH]cc(CCNC(=O)c3ccccc3Nc3ccccc3)c2c1
Ratio IC50 [15]: > 14300 | pIC50 [1]: 8.15 | pIC50 [2]: < 4.00

Nc1c2c(nc3ccccc13)CCC2
pIC50 [1]: 6.57 | pIC50 [16]: 5.36

CCC(CC)CN[C@H](Cc1c[nH]c2ccccc12)C(=O)NCCN1CCc2ccccc2C1
pIC50 [13]: 6.52 | pIC50 [2]: < 5.00

Cc1ccc(-c2nc3cc(C(=O)NNc4ccc(Br)cc4)ccc3[nH]2)cc1
pIC50 [17]: < 4.00 | pIC50 [18]: 5.84

CCCCCCNC(=O)Oc1ccc2c(c1)CN1CCc3ccc(/N=N/c4ccccc4)cc3C1N2C (centres undefined)
inhibition [19]: 28.5%

O=C(NCCCCCCCCNc1c2c(nc3ccccc13)CCCC2)c1ccccc1O
pIC50 [20]: 8.00

Cc1ccc(-c2nc3cc(C(=O)Nc4ccc(O)cc4)ccc3[nH]2)cc1
pIC50 [17]: < 4.00 | pIC50 [18]: 5.95
